The text below walks through data of patent US20210195924A1, “PHOTODYNAMIC INACTIVATION METHOD OF SALMONELLA” (SHANGHAI OCEAN UNIVERSITY, priority 2019, published 2021).

One test relates to Staphylococcus aureus. To be noted: Gram-positive bacteria Staphylococcus aureus; cited from earlier work.
The test system of the next test is Escherichia coli. To be noted: Gram-negative bacteria Escherichia coli; cited from earlier work.
The subject of test [1] is Salmonella typhimurium CICC 21484 and Salmonella enteritidis CMCC 50041. The test is described as follows: Riboflavin-mediated photodynamic inactivation of Salmonella in bacterial solution (455-460 nm LED blue light, plate count). The class given is cell-based.
Test [2] has as its system Salmonella on contaminated egg shells. Description: Salmonella inactivation experiment for fresh egg shells. The class given is cell-based. As to the method: Sterile egg shells were mixed with a Salmonella bacterial solution to be contaminated and divided into three groups as follows: 1, a single photosensitizer group with riboflavin concentration of 150 μmol/L, was subjected to the dark incubation for 40 min without the illumination of a blue light source; 2, a photodynamic experiment group with riboflavin concentration of 150 μmol/L, was subjected to the dark incubation for 40 min under the illumination of the blue light source for 40 min; and 3, a blank reference group with a saline solution having a volume equal to that of the riboflavin solution. Each group was provided with two parallel groups.
Bacteria culture: under a sterile condition, each group of egg shells was diluted with the saline solution for two times and then homogenized by a sterile homogenizing device and diluted. 100 μL diluent with appropriate dilution degrees was inoculated into the TSA solid culture medium and cultured for 24 to 48 h in the thermostatic incubator at 37° C. The number of bacterial colonies in each group was counted.

Test [3] deals with vesicular stomatitis virus. To be noted: ultraviolet radiation; riboflavin 300 μmol/L; under 10 minutes; cited from earlier work.

Take chlorophyllin ester: the photodynamic inactivation effect result with Staphylococcus aureus is given as “significant photodynamic inactivation effect”. Moreover, the influence on growth result in the test on Escherichia coli was “no influence on the growth”.
Consider `Cc1cc2nc3c(=O)[nH]c(=O)nc-3n(C[C@H](O)[C@H](O)[C@H](O)CO)c2cc1C` [riboflavin], for which the “amount of Salmonella reduced” value in test [1] (riboflavin 100 μmol/L, incubation time 40 min, illumination time 30 min, initial inoculation about 4.5×10^6 CFU/mL) was determined as 1.12 Log CFU/mL; in test [1] (riboflavin 150 μmol/L, incubation 40 min, illumination time 20 min, initial inoculation about 6.75 Log CFU/mL) it was 2.23 Log CFU/mL; in test [1] (riboflavin 150 μmol/L, incubation 40 min, illumination time 30 min, initial inoculation about 6.75 Log CFU/mL (Embodiment 3)), 6.21 Log CFU/mL; in test [1] (riboflavin 150 μmol/L, incubation 40 min, illumination time 40 min, initial inoculation about 6.75 Log CFU/mL), 6.75 Log CFU/mL; in test [1] (riboflavin 150 μmol/L, incubation 40 min, illumination time 50 min, initial inoculation about 6.75 Log CFU/mL), 6.75 Log CFU/mL; in test [1] (riboflavin 150 μmol/L, incubation time 40 min, illumination time 30 min, initial inoculation about 4.5×10^6 CFU/mL (Embodiment 1)) it was 6.14 Log CFU/mL. Moreover, the “amount of Salmonella reduced” value in test [1] (riboflavin 200 μmol/L, incubation time 40 min, illumination time 30 min, initial inoculation about 4.5×10^6 CFU/mL) is recorded as 6.21 Log CFU/mL. In addition, the “lethality (fatality rate) of Salmonella” value in test [1] (riboflavin 150 μmol/L, dark incubation 40 min, illumination 30 min) is 100%; in test [1] (riboflavin 150 μmol/L, dark incubation 40 min, no blue light (illumination 0 min)), “extremely low”. Further, the “fatality rate of Salmonella” value in test [1] (riboflavin 150 μmol/L, dark incubation 40 min, illumination time 40 min) came out at 100%. The “lethality of Salmonella” value in test [1] (riboflavin 200 μmol/L, dark incubation 40 min, illumination 30 min) was 100%; in test [1] (riboflavin concentration increased beyond 200 μmol/L, dark incubation 40 min, illumination 30 min), “apparently decreased”. The sterilization rate in test [2] (egg shells, photodynamic inactivation with riboflavin as photosensitizer, multiple experiments) is recorded as 99.88%. The “number of bacterial colonies in the egg shells after the PDI treatment” value in test [2] (riboflavin 150 μmol/L, dark incubation 40 min, blue light 40 min, blank reference group 7.4×10^5 CFU/g) was 8.4×10^2 CFU/g. Moreover, in test [2] (riboflavin 150 μmol/L, dark incubation 40 min, no blue light, blank reference group 7.4×10^5 CFU/g), the “number of bacterial colonies in the egg shells of the single photosensitizer group” value is listed as 7.0×10^5 CFU/g. Further, the virus killing entry in test [3] was “killed”.
